Measurements: patent US9302999B2, “Substituted triazoles as herbicides” (E. I. DU PONT DE NEMOURS AND COMPANY, priority 2012, dated 2016)

Assays:
[1] = tested on: pigweed (Amaranthus retroflexus); assay: Test A pre-/postemergence: pigweed; format: in vivo
Summary of the method: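 Visual 0–100 injury ratings (0 no effect, 100 complete control) taken about ten days after treatment, relative to untreated controls. Preemergence treatment was a directed soil spray; postemergence plants were 2–10 cm tall at one- to two-leaf stage. Soil: loam/sand blend.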

[2] = tested on: rice (Oryza sativa); assay: Test B flooded paddy: rice; format: in vivo; settings: Flood; 250 g ai/ha; applied to paddy water at 2-leaf stage; visually evaluated after 13 to 15 days
Summary of the method: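 Greenhouse assay lasting 13 to 15 days. Treatment was into water flooding pots 3 cm deep, at the 2-leaf stage, with that level sustained afterwards. Scores compare treated with control plants visually, 100 denoting complete control and 0 no effect; a dash marks no test result.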

[3] = tested on: blackgrass (Alopecurus myosuroides); assay: Test C pre-/postemergence: blackgrass; format: in vivo
Summary of the method: (§1)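 Visual injury scored 0–100 (100 = complete control) against untreated controls after 13–15 greenhouse days. Surfactant-containing solvent formulations applied either to soil after sowing (loam/sand) or over 1- to 4-leaf plants, 2–18 cm tall.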

[4] = tested on: winter wheat (Triticum aestivum); assay: Test C pre-/postemergence: winter wheat; format: in vivo
Summary of the method: as §1

[5] = tested on: wild oat (Avena fatua); assay: Test C pre-/postemergence: wild oat; format: in vivo; settings: Postemergence
Summary of the method: as §1

[6] = tested on: galium (catchweed bedstraw, Galium aparine); assay: Test C pre-/postemergence: galium; format: in vivo
Summary of the method: as §1

[7] = tested on: morningglory (Ipomoea coccinea); assay: Test C pre-/postemergence: morningglory; format: in vivo
Summary of the method: as §1

[8] = tested on: nutsedge, yellow (yellow nutsedge, Cyperus esculentus); assay: Test C pre-/postemergence: nutsedge, yellow; format: in vivo
Summary of the method: as §1

[9] = tested on: pigweed (Amaranthus retroflexus); assay: Test C pre-/postemergence: pigweed; format: in vivo
Summary of the method: as §1

[10] = tested on: ragweed (common ragweed, Ambrosia elation); assay: Test C pre-/postemergence: ragweed; format: in vivo
Summary of the method: as §1

[11] = tested on: Barnyardgrass; assay: Test C preemergence: barnyardgrass; format: in vivo, Echinochloa crus-galli
[12] = Postemergence, 31 g ai/ha, scale 0 to 100 (0 no effect, 100 complete control)
[13] = Postemergence, 62 g ai/ha, scale 0 to 100 (0 no effect, 100 complete control)
[14] = Postemergence, 125 g ai/ha, scale 0 to 100, 0 no effect, 100 complete control
[15] = Postemergence, 250 g ai/ha, scale 0 to 100
[16] = Preemergence, 31 g ai/ha, scale of 0 to 100, 0 is no effect, 100 is complete control
[17] = Preemergence, 62 g ai/ha, scale of 0 to 100, 0 is no effect, 100 is complete control
[18] = Preemergence, 125 g ai/ha, scale 0 to 100, 0 no effect, 100 complete control
[19] = Preemergence, 250 g ai/ha, scale 0 to 100, 0 no effect, 100 complete control
[20] = 125 g ai/ha, scale 0 to 100, 0 no effect, 100 complete control

CCc1nn(-c2ccc(F)cc2)nc1Cc1ccnc(C(F)(F)F)c1 [Compound 154]
90: Plant response rating, Blackgrass [3, 16] | Plant response rating, Blackgrass [3, 17] | Plant response rating, Blackgrass [3, 18] | Plant response rating, Blackgrass [3, 19] | Plant response rating, Barnyardgrass ([11]; 62 g ai/ha, scale of 0 to 100, 0 is no effect, 100 is complete control) | Plant response rating, Barnyardgrass [11, 20]
15: Plant response rating, Blackgrass [3, 12] | Plant response rating, Wheat [4, 13] | Plant response rating, Oat, Wild ([5]; 31 g ai/ha, scale 0 to 100 (0 no effect, 100 complete control)) | Plant response rating, Nutsedge, Yellow [8, 14] | Plant response rating, Nutsedge, Yellow [8, 15]
85: Plant response rating, Galium [6, 17] | Plant response rating, Galium [6, 18]
50: Plant response rating, Ragweed [10, 18]
0: Plant response rating, Morningglory [7, 16] | Plant response rating, Nutsedge, Yellow [8, 16] | Plant response rating, Ragweed [10, 16] | Plant response rating, Ragweed [10, 17]
30: Plant response rating, Wheat [4, 15] | Plant response rating, Ragweed [10, 12] | Plant response rating, Ragweed [10, 13] | Plant response rating, Ragweed [10, 14]
40: Plant response rating, Morningglory [7, 12] | Plant response rating, Ragweed [10, 15]
45: Plant response rating, Rice (0 to 100 scale, 0 is no effect, 100 is complete control) [2] | Plant response rating, Galium [6, 12] | Plant response rating, Barnyardgrass ([11]; 31 g ai/ha, scale of 0 to 100, 0 is no effect, 100 is complete control)
100: Plant response rating, Pigweed ([1]; Postemergence, 125 g ai/ha, 0 to 100 scale, 0 is no effect, 100 is complete control) | Pigweed plant response rating ([1]; Postemergence, 500 g ai/ha, visual rating on 0 to 100 scale (0 no effect, 100 complete control), approximately ten days) | Plant response rating, Pigweed ([1]; Preemergence, 125 g ai/ha, 0 to 100 scale where 0 is no effect and 100 is complete control) | Plant response rating, Pigweed ([1]; Preemergence, 500 g ai/ha, 0 to 100 scale (0 no effect, 100 complete control)) | Plant response rating, Galium [6, 19] | Plant response rating, Pigweed [9, 16] | Plant response rating, Pigweed [9, 17] | Plant response rating, Pigweed [9, 18] | Plant response rating, Pigweed [9, 19]
70: Plant response rating, Blackgrass [3, 15] | Plant response rating, Galium [6, 14] | Plant response rating, Ragweed [10, 19]
20: Plant response rating, Wheat [4, 14]
10: Plant response rating, Wheat [4, 12] | Plant response rating, Nutsedge, Yellow [8, 12] | Plant response rating, Nutsedge, Yellow [8, 13]
95: Plant response rating, Pigweed [9, 12] | Plant response rating, Pigweed [9, 13]
75: Plant response rating, Galium [6, 15] | Plant response rating, Morningglory [7, 13] | Plant response rating, Morningglory [7, 14]
25: Plant response rating, Morningglory [7, 19]
98: Plant response rating, Morningglory [7, 15] | Plant response rating, Pigweed [9, 14] | Plant response rating, Pigweed [9, 15]
65: Plant response rating, Oat, Wild [5, 20] | Plant response rating, Oat, Wild ([5]; 250 g ai/ha, scale 0 to 100)
5: Plant response rating, Wheat [4, 17] | Plant response rating, Wheat [4, 18] | Plant response rating, Galium [6, 16] | Plant response rating, Morningglory [7, 17] | Plant response rating, Morningglory [7, 18]
35: Plant response rating, Blackgrass [3, 13] | Plant response rating, Oat, Wild ([5]; 62 g ai/ha, scale 0 to 100 (0 no effect, 100 complete control))
55: Plant response rating, Blackgrass [3, 14] | Plant response rating, Wheat [4, 19]
60: Plant response rating, Galium [6, 13]
